Results on 1 molecule are retold here after patent US11351129B2, “Systems and methods for treating vitiligo” (Transdermal Biotechnology, Inc., priority 2016, dated 2022).

This data set has as its system vitiligo depigmented area of skin. The data set is described as follows: Two month study of topically applied sodium pyruvate in subjects with vitiligo (photographs, DSMII Colorimeter erythema and melanin, clinical evaluations). It is filed as in vivo, human. Conditions: for average erythema colorimetric measurement: DSMII Colorimeter, 0.2% phase. The text has this: Subjects were 18 years of age and older. A medical history form and this consent statement were provided to them to read, review, and complete. They had no other systemic or dermatological disease present that would interfere with the integrity of this study. Subjects were in good health as determined by the medical history. After all their questions were answered and they decided to participate in the study they were asked to sign the informed consent statement. 5 subjects were studied as follows:
Subjects were dispensed two (2) tubes of test products. One was labeled HNC 180-100-A (0.05%) and the other labeled as HNC 180-100-B (0.1%). Subjects were instructed to use these products sparingly and make applications twice daily, morning, and evening. Applications were made only to the areas designated for treatment.
The sodium pyruvate dosage was increased to 0.2% after the initial eight week study was completed. Subjects were dispensed HNC-180-12 for this phase.
This was a two (2) month study that involved five (5) subjects. Test sessions lasted approximately ½ hour per visit. There were […] scheduled visits. The first was on Day 1 (Baseline), and then at 1, 2, 4, 6 and 8 weeks.
At the end of the 8 weeks all subjects were invited to continue for further study. Four of the subjects elected to continue.
Prior to any study procedures being performed subjects were given an informed consent statement to read, review, and sign. A body map assessment of the vitiligo depigmented area was made and the target areas of treatment were photographed for the baseline record. Colorimetric measurements of the skin were done employing a DSMII Colorimeter. This instrument produced a read-out of erythema and melanin based on the light absorption characteristics of human skin. Subjects reported to the clinic for additional photographs, colorimeter measurements, and clinical evaluations at each scheduled visit.

With `CC(=O)C(=O)[O-].[Na+]` [sodium pyruvate], the “increase in pigment in vitiliginous areas, subjects showing it” value (5 subjects with vitiligo, topical, twice daily, 0.05% and 0.1% for 8 weeks, then 0.2%) is recorded as 4 out of the 5. For the setting “concentration of sodium pyruvate increased to 0.2% after 8 weeks, topical”, the irritation result was “increased irritation”. The appearance of vitiligo result (topically applied) is “effective in reducing the appearance of vitiligo”. For the same molecule, the “average erythema colorimetric measurement” value was 15.80 arbitrary units (week 12) and 15.71 arbitrary units (week 16).
